Entries after “also recorded” stand apart in the source; their conditions may differ.
Key:
pancreatic cancer cells = assay: CellTiter Glo cell number assay, chemotherapy with or without soluble RAGE; assay type: cell-based; settings: treated for 5 days; Gemcitibine alone or with increasing doses of recombinant human soluble RAGE
MEK/ERK = assay: Western blot of phosphorylated MEK and ERK in muscle cells exposed to cachexia-inducing conditioned media (CI-CM); assay type: cell-based, human; settings: FIG. 20; for CI-CM stimulated phosphorylation of ERK: human muscle cells stimulated by CI-CM; for MEK/ERK activation (pMEK, pERK) by cachexia stimuli in CI-CM: muscle cells exposed to CI-CM, relative to NCI-CM, Western blot
Text: FIG. 20 is an image of a Western blot showing phosphorylated MEK (pMEK) and phosphorylated ERK (pERK) in muscle cells exposed to cachexia-inducing conditioned media (CI-CM), either in the absence or presence of the MEK/ERK inhibitors, PD184352 (PD184) and trametinib (Tram). Also shown are pMEK and pERK levels in muscle cells exposed to non-cachexia-inducing conditioned media (NCI-CM).
Inhibition of MEK by exposure to PD1 84352 or trametinib blocked CI-CM stimulated phosphorylation of ERK (FIG. 20).

HSkM cells = assay: In-Cell Western of myosin heavy chain (MyoHC) content in muscle cells exposed to CI-CM; assay type: cell-based, human
Text: FIG. 21 is a chart showing the quantification of myosin heavy chain (MyoHC) content determined by In-Cell Western analysis of in vitro HSkM cells treated with media conditioned by cachexia-inducing MkN1 and G361 cells and in vitro HSkM cells treated with media conditioned by non-cachexia-inducing 293 cells, either in the presence or absence of a MEK/ERK inhibitor PD184352 (PD184).
FIG. 22 is a chart showing the myosin heavy chain (MyoHC) content determined by In-Cell Western analysis of in vitro HSkM cells pre-treated (for 2 days) or not pre-treated with cachexia-inducing conditioned media (“CI-CM”), either in the presence or absence of an ERK1/2 inhibitor, SCH772984 (SCH2984).
FIGS. 23A and 23B are a series of charts showing the dose response of myosin heavy chain (MyoHC) content determined by In-Cell Western analysis of muscle cells treated with a RAGE Anti-Peptide (FIG. 23A) or an anti-RAGE mAb (FIG. 23B), either in the absence or presence of cachexia-inducing conditioned media (CI-CM).
FIG. 24 is a chart showing the dose response of myosin heavy chain (MyoHC) content determined by In-Cell Western analysis of muscle cells treated with a recombinant soluble RAGE, either in the presence of cachexia-inducing conditioned media (CI-CM) or non-cachexia-inducing conditioned media (NCI-CM). […]

[1] = tested on: differentiated primary adipocytes; assay: Lipid loss in adipocytes treated with CI-CM (bodipy/DAPI staining); assay type: cell-based, human; settings: 5 days CI-CM, FIG. 42
Text: FIG. 42 includes six panels showing adipocytes in cultured stained with bodipy to highlight lipids and DAPI to stain nuclei. Lipids are lost in cells treated for 5 days with cachexia (CXA) inducing conditioned media (CM). Lipid loss is inhibited by inhibiting RAGE signaling.
Lipid loss from differentiated primary adipocytes occurs within 5 days of contact with cachexia-inducing conditioned media (FIG. 42A). This loss is inhibited in adipocytes treated with Rage inhibitors, anti-RAGE monoclonal antibody AF1145 or Tramatenib. This phenotypic response is also seen in melanoma cells.
The effects of treatment with RAGE blocking antibodies and Tremetinib are shown (FIG. 42).

human muscle cells = assay: Testing of secreted proteins/cytokines for induction of the L1000 cachexia signature in muscle cells; assay type: cell-based; settings: in vitro systems described
Experimental: FIG. 32 are graphs showing cytokine abundance relative to cachexia in patient plasma and conditioned media. Human cytokines (300 on cytokine array) in muscle were tested. None of the expected “usual suspect” cytokines induced the cachectic phenotype or gene expression signature in human muscle cells. IL6, INHBA, IFNG, IL10, IL1, TNFa was assayed in patient plasma and conditioned media.
FIG. 33 is a graph showing testing of human cytokines for induction of cancer cachexia signature. For some the enrichment score was weak (e.g., 1.25).
A faithful read-out of the cachectic phenotype was also developed using a novel high-throughput, low-cost gene expression profiling method (L1000) (FIG. 5). L1000 involves the profiling of 1000 human transcripts from which the remainder of the transcriptome can be computationally inferred. This method, validated in over 1 million samples, allowed for profiling of small numbers of cells grown in 384-well plates.
Therefore, it is likely that the major cachexia-inducing factors were yet to be discovered.

Nc1ccn([C@@H]2O[C@H](CO)[C@@H](O)C2(F)F)c(=O)n1 [Gemcitibine]
pancreatic cancer cell numbers (CellTiter Glo) (pancreatic cancer cells): reduction

O=C(NOCC1CC1)c1ccc(F)c(F)c1Nc1ccc(I)cc1Cl [PD184352]
CI-CM stimulated phosphorylation of ERK (MEK/ERK): blocked | MEK/ERK activation (pMEK, pERK) by cachexia stimuli in CI-CM (MEK/ERK): inhibited | cachectic induced loss of myosin heavy chain (MyoHC) protein (HSkM cells; HSkM cells with media conditioned by MkN1 and G361 cells, low-dose, dose curve, FIG. 21): blocks loss of MyoHC; also recorded: block

O=C(Nc1ccc2[nH]nc(-c3ccncc3)c2c1)C1CCN(CC(=O)N2CCN(c3ccc(-c4ncccn4)cc3)CC2)C1 (stereo not drawn) [SCH772984]
reversal of cachectic induced loss of myosin heavy chain (MyoHC) (HSkM cells; HSkM cells pre-treated (2 days) or not with CI-CM, dose response, FIG. 22): can reverse the MyoHC loss at a certain dose, beyond which the benefit is lost; also recorded: (partially) reverse; also recorded: reduced in a dose-dependent manner

CC(=O)Nc1cccc(-n2c(=O)n(C3CC3)c(=O)c3c(Nc4ccc(I)cc4F)n(C)c(=O)c(C)c32)c1 [trametinib, N-[3-[3-Cyclopropyl-5-[(2-fluoro-4-iodophenyl)amino]-3,4,6,7-tetrahydro-6,8-dimethyl-2,4,7-trioxopyrido[4,3-d]pyrimidin-1(2H)-yl]phenyl]acetamide]
CI-CM stimulated phosphorylation of ERK (MEK/ERK): blocked | MEK/ERK activation (pMEK, pERK) by cachexia stimuli in CI-CM (MEK/ERK): inhibited | lipid loss from adipocytes caused by cachexia-inducing conditioned media ([1]; listed as Tramatenib): inhibited | lipid loss from adipocytes caused by cachexia-inducing conditioned media ([1]; listed as Tremetinib): block the loss of lipid

Activin
induction of the cachexia signature (human muscle cells): none of them strongly induced the cachexia signature

IFNγ: secreted protein tested as candidate cachexia-inducing protein
induction of the cachexia signature (human muscle cells): none of them strongly induced the cachexia signature

IL-6: secreted protein tested as candidate cachexia-inducing protein
induction of the cachexia signature (human muscle cells): none of them strongly induced the cachexia signature

Myostatin: secreted protein tested as candidate cachexia-inducing protein
induction of the cachexia signature (human muscle cells): none of them strongly induced the cachexia signature

TNFα
induction of the cachexia signature (human muscle cells): none of them strongly induced the cachexia signature

B1: IL-10: secreted protein tested as candidate cachexia-inducing protein (protein, UniProt P22301 19-178, looked up)
Interleukin-10: SPGQGTQSENSCTHFPGNLPNMLRDLRDAFSRVKTFFQMKDQLDNLLLKESLLEDFKGYLGCQALSEMIQFYLEEVMPQAENQDPDIKAHVNSLGENLKTLRLRLRRCHRFLPCENKSKAVEQVKNAFNKLQEKGIYKAMSEFDIFINYIEAYMTMKIRN
induction of the cachexia signature (human muscle cells): none of them strongly induced the cachexia signature

Source: patent US11058903B2, “Methods for identifying and treating cachexia or pre-cachexia using an inhibitor of rage” (THE BROAD INSTITUTE, INC., priority 2013, dated 2021)
